We go through two substances from US9850287B2, “Means and methods for breaking noncovalent binding interactions between molecules” (Het Nederlands Kanker Instituut, priority 2005, dated 2017).

The target in the series is T1, HLA-A2.1 multimers (Homo sapiens, UniProt P04439, D140Y/D185E/D98H/E176V/E277Q/G131W/G231S/I119V/I121R/I166T/I218V/N151K/N90K/P208A/P217A/Q86G/Q94H/R138H/R169H).
T1 construct: made in house
The class given is physicochemical.

GIL*FVFTL (SEQ ID NO:3) [G4*]: the “effect of UV exposure on amount of MHC complex recovered” value is “substantial reduction in the amount of MHC complex recovered”.

In the case of GILGFVF*L (SEQ ID NO:4) [T8*], the “effect of UV exposure on amount of MHC complex recovered” value was “substantial reduction in the amount of MHC complex recovered”.
